Measured values: US20240254109A1, “SALT CONTAINING PIPERAZINE POLYCYCLIC DERIVATIVE, CRYSTAL FORM THEREOF, PREPARATION METHOD THEREFOR, AND USE THEREOF” (Shanghai Hansoh Biomedical Co., Ltd., priority 2021, published 2024)
Blank lines part the entries; values can stand above or below the compound they belong to.

What was measured:
[1] = Pharmacokinetic assay in Balb/c mice (plasma and brain tissue); assay type: in vivo; details: p.o. 5 mg/kg
Method: (III). Pharmacokinetic Assay in Balb/c Mice
Balb/c mice were used as test animals. The pharmacokinetic behavior in mouse body (plasma and brain tissue) of the compounds of Examples of the present invention was studied at an oral administration dose of 5 mg/kg.
Male Balb/c mice (12 mice per group), purchased from Shanghai Jiesijie Laboratory Animal Co., LTD, with Certificate No.: SCXK (Shanghai) 2013-0006 N0.311620400001794.
The test compound was dissolved in 0.5% CMC-Na (1% Tween80) by sonication to formulate a clear solution or homogeneous suspension.
After an overnight fast, male Balb/c mice (12 mice per group) were administered p.o. with the test compound at an administration dose of 5 mg/kg and an administration volume of 10 mL/kg.
0.2 mL of blood was taken from the heart of the mouse before administration and at 1, 2, 4, 8 and 24 hours after administration, and the mice were sacrificed with CO2. The samples were stored in EDTA-K2 tubes, and centrifuged for 6 minutes at 4° C., 6000 rpm to separate the plasma. The plasma samples were stored at −80° C. Whole brain tissue was taken out, weighed, placed in a 2 mL centrifuge tube, and stored at −80° C.
1) 160 μL of acetonitrile was added to 40 μL of the plasma sample for precipitation, and then the mixture was centrifuged for 5 to 20 minutes at 3500×g.
2) 90 μL of acetonitrile containing internal standard (100 ng/mL) was added to 30 μL of the plasma and brain homogenate sample for precipitation, and then the mixture was centrifuged for 8 minutes at 13000 rpm.
3) 70 μL of water was added to 70 μL of the treated supernatant and mixed by vortex for 10 minutes. 20 μL of the supernatant was taken to analyze the concentration of the test compound by LC/MS/MS. LC/MS/MS analytical instrument: AB Sciex API 4000 Qtrap.
• Liquid chromatography condition: Shimadzu LC-20AD pump • Chromatographic column: Agilent ZORBAX XDB-C18 (50×2.1 mm, […]); Mobile phase: Eluent A was 0.1% formic acid in water, and Eluent B was acetonitrile • Flow rate: 0.4 mL/min • Elution time: 0-4.0 minutes, the eluent is as follows:
The main parameters of pharmacokinetics were calculated by WinNonlin 6.1.

[2] = Solid stability experiment of crystal form of salt; assay type: physicochemical; details: for Maximum single impurity increase % / Total impurity increase %: listed as Crystal form B of p-toluenesulfonate
Method: 4. Solid Stability Experiment
The physicochemical stability of crystal form of salt of compound N-(trans-3-(2-(4-(2,3-dichlorophenyl)piperazin-1-yl)ethyl)cyclobutyl)oxazole-2-carboxamide under the conditions of light 50001×, high temperature 60° C., high humidity 92.5% RH and high temperature and high humidity 50° C. 75% RH was investigated, which provided a basis for crystal form screening and compound crystal form storage.
About 1 mg of different crystal forms of salt were taken and placed under the conditions of light 50001×, high temperature 60° C., high humidity 92.5% RH, high temperature and high humidity 50° C. 75% RH for 5 days and 10 days. The salt content was determined by HPLC and external standard method, and the change of relevant substances was calculated by chromatographic peak area normalization method.

[3] = Stability study of salt (5 days and 10 days, HPLC related substances); assay type: physicochemical
Method: 2.1.3 Stability Study of Salt
Hydrochloride and p-toluenesulfonate of N-(trans-3-(2-(4-(2,3-dichlorophenyl)piperazin-1-yl)ethyl)cyclobutyl)oxazole-2-carboxamide were weighed about 1 mg, respectively, and then placed under light (5000 lux), high temperature (60° C.), high humidity (92.50 RH), high temperature and high humidity (50° C. and 75% RH) for 5 days and 10 days, then a diluent DMSO was added to prepare a solution with salt concentration of about 1 mg/mL.
The chromatographic peak area normalization method was used to calculate the changes of related substances.

[4] = GWGS-5 d (high temperature and high humidity)
[5] = GWGS-10 d (high temperature and high humidity)

SMILES: O=C(N[C@H]1C[C@H](CCN2CCN(c3cccc(Cl)c3Cl)CC2)C1)c1ncco1 [Example 12A, N-(Trans-3-(2-(4-(2,3-dichlorophenyl)piperazin-1-yl)ethyl)cyclobutyl)oxazole-2-carboxamide]
Peak time tmax ([1]; Brain): 1 h
Peak time tmax ([1]; Plasma): 0.5 h

SMILES: CCN(C)C(=O)NC1CC(CCN2CCN(c3cccc4sccc34)CC2)C1 (stereo not shown) [Example 24, 3-(3-(2-(4-(Benzo[b]thiophen-4-yl)piperazin-1-yl)ethyl)cyclobutyl)-1-ethyl-1-methylurea]
Peak time tmax ([1]; Brain): 1 h
Peak time tmax ([1]; Plasma): 0.5 h

SMILES: O=C(NC1CC(CCN2CCCN(c3cccc(Cl)c3Cl)CC2)C1)c1ccco1 (stereo not shown) [Example 25, N-(3-(2-(4-(2,3-Dichlorophenyl)-1,4-diazepan-1-yl)ethyl)cyclobutyl)furan-2-carboxamide]
Peak time tmax ([1]; Brain): 1 h
Peak time tmax ([1]; Plasma): 1 h

SMILES: O=C(N[C@H]1C[C@H](CCN2CCN(c3cccc(Cl)c3Cl)CC2)C1)c1ncco1 [crystal form B of p-toluenesulfonate, N-(trans-3-(2-(4-(2,3-dichlorophenyl)piperazin-1-yl)ethyl)cyclobutyl)oxazole-2-carboxamide]
Maximum single impurity increase % ([2]; High humidity, 5 Days): <0.02%
Total impurity increase % ([2]; High humidity, 5 Days): <0.02%
Total impurity increase % ([2]; High temperature, 10 Days): <0.02%
Maximum single impurity increase % ([2]; Light, 5 Days): 0.13%
Total impurity increase % ([2]; Light, 5 Days): 0.03%
Maximum single impurity increase % ([2]; Light, 10 Days): 0.13%
Total impurity increase % ([2]; Light, 10 Days): 0.19%
single impurity ([2]; light conditions): increases significantly
crystal form stability ([2]; other conditions than light): stable

SMILES: O=C(N[C@H]1C[C@H](CCN2CCN(c3cccc(Cl)c3Cl)CC2)C1)c1ncco1 [p-toluenesulfonate, N-(trans-3-(2-(4-(2,3-dichlorophenyl)piperazin-1-yl)ethyl)cyclobutyl)oxazole-2-carboxamide]
RRT 0.190 Area % ([3]; 0 d): 0.317%
RRT 0.210 Area % ([3]; 0 d): 0.073%
RRT 1.000 Area % ([3]; 0 d): 99.217%
RRT 1.050 Area % ([3]; 0 d): 0.149%
RRT 1.190 Area % ([3]; 0 d): 0.178%
RRT 1.540 Area % ([3]; 0 d): 0.067%
total Area % (related substances) ([3]; 0 d): 0.783%
RRT 0.190 Area % ([3]; GS-5 d (high humidity)): 0.213%
RRT 0.210 Area % ([3]; GS-5 d (high humidity)): 0.074%
RRT 1.000 Area % ([3]; GS-5 d (high humidity)): 99.310%
RRT 1.050 Area % ([3]; GS-5 d (high humidity)): 0.145%
RRT 1.190 Area % ([3]; GS-5 d (high humidity)): 0.177%
RRT 1.540 Area % ([3]; GS-5 d (high humidity)): 0.080%
total Area % (related substances) ([3]; GS-5 d (high humidity)): 0.690%
RRT 0.190 Area % ([3]; GS-10 d (high humidity)): 0.233%
RRT 0.210 Area % ([3]; GS-10 d (high humidity)): 0.075%
RRT 1.000 Area % ([3]; GS-10 d (high humidity)): 99.298%
RRT 1.050 Area % ([3]; GS-10 d (high humidity)): 0.143%
RRT 1.190 Area % ([3]; GS-10 d (high humidity)): 0.180%
RRT 1.540 Area % ([3]; GS-10 d (high humidity)): 0.071%
total Area % (related substances) ([3]; GS-10 d (high humidity)): 0.702%
RRT 0.190 Area % ([3]; GW-5 d (high temperature)): 0.163%
RRT 0.210 Area % ([3]; GW-5 d (high temperature)): 0.072%
RRT 1.000 Area % ([3]; GW-5 d (high temperature)): 99.400%
RRT 1.050 Area % ([3]; GW-5 d (high temperature)): 0.121%
RRT 1.190 Area % ([3]; GW-5 d (high temperature)): 0.175%
RRT 1.540 Area % ([3]; GW-5 d (high temperature)): 0.068%
total Area % (related substances) ([3]; GW-5 d (high temperature)): 0.600%
RRT 0.190 Area % ([3]; GW-10 d (high temperature)): 0.224%
RRT 0.210 Area % ([3]; GW-10 d (high temperature)): 0.075%
RRT 1.000 Area % ([3]; GW-10 d (high temperature)): 99.319%
RRT 1.050 Area % ([3]; GW-10 d (high temperature)): 0.131%
RRT 1.190 Area % ([3]; GW-10 d (high temperature)): 0.178%
RRT 1.540 Area % ([3]; GW-10 d (high temperature)): 0.073%
total Area % (related substances) ([3]; GW-10 d (high temperature)): 0.681%
RRT 0.190 Area % [3, 4]: 0.348%
RRT 0.210 Area % [3, 4]: 0.072%
RRT 1.000 Area % [3, 4]: 99.204%
RRT 1.050 Area % [3, 4]: 0.137%
RRT 1.190 Area % [3, 4]: 0.170%
RRT 1.540 Area % [3, 4]: 0.070%
total Area % (related substances) [3, 4]: 0.796%
RRT 0.190 Area % [3, 5]: 0.319%
RRT 0.210 Area % [3, 5]: 0.074%
RRT 1.000 Area % [3, 5]: 99.246%
RRT 1.050 Area % [3, 5]: 0.128%
RRT 1.190 Area % [3, 5]: 0.168%
RRT 1.540 Area % [3, 5]: 0.065%
total Area % (related substances) [3, 5]: 0.754%
RRT 0.190 Area % ([3]; GZ-5 d (light)): 0.266%
RRT 0.210 Area % ([3]; GZ-5 d (light)): 0.072%
RRT 0.890 Area % ([3]; GZ-5 d (light)): 0.130%
RRT 1.000 Area % ([3]; GZ-5 d (light)): 99.184%
RRT 1.050 Area % ([3]; GZ-5 d (light)): 0.101%
RRT 1.190 Area % ([3]; GZ-5 d (light)): 0.171%
RRT 1.540 Area % ([3]; GZ-5 d (light)): 0.075%
total Area % (related substances) ([3]; GZ-5 d (light)): 0.816%
RRT 0.190 Area % ([3]; GZ-10 d (light)): 0.324%
RRT 0.210 Area % ([3]; GZ-10 d (light)): 0.073%
RRT 0.890 Area % ([3]; GZ-10 d (light)): 0.232%
RRT 1.000 Area % ([3]; GZ-10 d (light)): 99.028%
RRT 1.050 Area % ([3]; GZ-10 d (light)): 0.115%
RRT 1.190 Area % ([3]; GZ-10 d (light)): 0.162%
RRT 1.540 Area % ([3]; GZ-10 d (light)): 0.066%
total Area % (related substances) ([3]; GZ-10 d (light)): 0.972%
changes in impurities ([3]; high temperature, high humidity, and high temperature and high humidity, 5 and 10 days): no significant changes in impurities

Next, values leading:

Peak time tmax ([1]; Brain): 1 h
Peak time tmax ([1]; Plasma): 0.5 h
SMILES: O=C(N[C@H]1C[C@@H](CCN2CCN(c3cccc(Cl)c3Cl)CC2)C1)c1ncco1 [Example 12B, N-(Cis-3-(2-(4-(2,3-dichlorophenyl)piperazin-1-yl)ethyl)cyclobutyl)oxazole-2-carboxamide]

Peak time tmax ([1]; Brain): 1 h
Peak time tmax ([1]; Plasma): 0.5 h
SMILES: O=C(N[C@H]1C[C@H](CCN2CCN(c3cccc(Cl)c3Cl)CC2)C1)c1cccc2ncccc12 [Example 19A, N-(trans-3-(2-(4-(2,3-dichlorophenyl)piperazin-1-yl)ethyl)cyclobutyl)quinoline-5-carboxamide]
